Read-outs that look alike come from different tables or passages of the source. Marks after values point to notes of the source that are not given here.
How the values were obtained:
mice [1] = test system: mice; parameters: method as in PMID 11234340, PMID 12484538, PMID 15652370; conditions: series 1, cited from earlier work
mice [2] = test system: mice; parameters: method as in PMID 11234340, PMID 12484538, PMID 15652370; conditions: series 1, cited from earlier work; remark: listed apart in the source
mice [3] = conditions: compounds obtained previously (series 1 and 2); cited from earlier work
mice [4] = test: Spontaneous locomotor activity in mice (photoresistor actometers); type: in vivo; conditions: for ED50: confidence limits in parentheses, read-out: ED50 (mg/kg) ± SEM, spontaneous locomotor activity; for Number of impulses ± SEM (30min): i.p.
Description: (§1) The experiments were carried out on male albino Swiss mice (body weight 18–26 g). All of the animals were housed at constant humidity (60%) and temperature (25 °C) and kept on a 12 h light/dark cycle. Animals were fed a standard pellet diet with free access to tap water. All procedures were conducted according to Animal Care and Use Committee guidelines, and approved by the Ethical Committee of Jagiellonian University, Kraków.
(§2) Control and experimental groups consisted of 6–8 animals each. The investigated compounds were administered intraperitoneally as a suspension in 0.5% methylcellulose in a constant volume of 10 mL/kg.
Spontaneous locomotor activity in mice was measured in circular photoresistoractometers (32 cm in diameter). […] Thirty minutes after the injection of the investigated compounds, mice were placed in the actometers for 30 min. Each crossing of the light beam was recorded automatically. The amount of impulses was noted after 30 min.

mice [5] = test: “Writhing” test in mice (phenylbenzoquinone); type: in vivo; conditions: for ED50: Mus musculus, ip, read-out: ED50 (mg/kg) ± SEM, writhing test
Description: as §1, §2
(§3) The statistical significance was calculated using a Student’s t-test. The ED50 values and their confidence limits were calculated according to the method of Litchfield and Wilcoxon.
(§4) Pain reactivity was measured in two tests: “hot plate” test (according to the method of Eddy and Leimbach) and “writhing” test in mice (according to Hendershot and Forsaith).
Then, after 25 min, the irritant (phenylbenzoquinone, 0.02% solution, ethanol-water, 5:95) was also administered intraperitoneally in a constant volume of 0.25 mL. Five min after the application of the irritant,a 10 min long period of observation started, in which the number of writhing episodes was counted.
The analgesic effect of individual doses was expressed in percent:(1) % Analgesic effect=100−∑ of writing incidents in experimental group/∑ of writhing incidents in control group×100

mice [6] = test: “Hot plate” test in mice; type: in vivo; conditions: for change in vivo at 100 mg/kg / change in vivo at 200 mg/kg / Time of Reaction to Pain Stimulus (s) ± SEM: hot plate; for change in vivo at 100 mg/kg / change in vivo at 200 mg/kg / Time of Reaction to Pain Stimulus (s) ± SEM / analgesic effect in the hot plate test (in words): mice; for analgesic effect in the hot plate test (in words): applied doses (Table 4)
Description: as §1, §2, §3, §4
Animals were placed individually on the metal plate, heated to 55 ± 1 °C. The latency time (s) to the pain reaction (licking of the hind paws or jumping) was recorded by a stop-watch. A cutoff time of 45 s was used to prevent tissue damage.

in vivo = type: in vivo; conditions: male, albino Swiss, mouse, in vivo, ip; mice, intraperitoneal, mortality after 24 h; confidence limits in parentheses
Description: as §1, §2

[7] = Mus musculus, ip, dose 25 mg/kg, read-out: Degree of motor inhibition (%)
[8] = Mus musculus, ip, dose 50 mg/kg, read-out: Degree of motor inhibition (%)
[9] = Mus musculus, ip, 0.5 h, dose 100 mg/kg, read-out: Prolonged Time (%)
[10] = Mus musculus, ip, 0.5 h, dose 200 mg/kg, read-out: Prolonged Time (%)
[11] = Mus musculus, ip, dose 100 mg/kg, read-out: Degree of motor inhibition (%)
[12] = confidence limits in parentheses
[13] = Mus musculus, ip, dose 200 mg/kg, read-out: Degree of motor inhibition (%)
[14] = Mus musculus, ip, 0.5 h, read-out: Prolonged Time (%)

SMILES | ED50 (mice [4]; Mus musculus, ip) [mg/kg] | inhibition at 25 mg/kg (mice [4]; [7]) [%] | inhibition at 50 mg/kg (mice [4]; [8]) [%] | Number of impulses ± SEM (30min) (mice [4]; dose 25 mg/kg) | Number of impulses ± SEM (30min) (mice [4]; dose 50 mg/kg) | Mean no. of writhing ± SEM (mice [5]; i.p., dose 12.5 mg/kg) | Mean no. of writhing ± SEM (mice [5]; i.p., dose 25 mg/kg) | change in vivo at 100 mg/kg (mice [6]; [9]) [%] | change in vivo at 200 mg/kg (mice [6]; [10]) [%] | Time of Reaction to Pain Stimulus (s) ± SEM (mice [6]; dose 100 mg/kg) [s] | Time of Reaction to Pain Stimulus (s) ± SEM (mice [6]; dose 200 mg/kg) [s] | LD50 at 24 h (in vivo) [mg/kg] | inhibition at 100 mg/kg (mice [4]; [11]) [%] | Number of impulses ± SEM (30min) (mice [4]; dose 100 mg/kg) | ED50 (mice [5]; [12]) [mg/kg] | Mean no. of writhing ± SEM (mice [5]; i.p., dose 50 mg/kg) | Mean no. of writhing ± SEM (mice [5]; i.p., dose 100 mg/kg) | other results
COc1nc(C)cc2c1C(=O)N(CN1CCOCC1)C2=O [Compound 1Q] |  |  |  |  |  |  |  |  |  |  |  |  |  |  |  |  |  | Thiopental Anesthesia % Prolong. (mice [1]; dose 44 mg/kg): 141.7 ** %; % Inh. of locomotor activity (mice [2]; dose 44 mg/kg): 42.65 * %; ED50, writhing test (mice [3]): 13.66 mg/kg
COc1ccccc1N1CCN(CCCCN2C(=O)c3cc(C)nc(OC)c3C2=O)CC1 [Compound 1R] |  |  |  |  |  |  |  |  |  |  |  |  |  |  |  |  |  | Thiopental Anesthesia % Prolong. (mice [1]; dose 50 mg/kg): 159.12%; Thiopental Anesthesia % Prolong. (mice [1]; dose 100 mg/kg): 255.97%; % Inh. of locomotor activity (mice [2]; dose 100 mg/kg): 82.32 ** %; ED50, writhing test (mice [3]): 6.8 mg/kg
COc1nc(C)cc2c1C(=O)N(CCCCN1CCOCC1)C2=O [Compound 8, 4-methoxy-6-methyl-4-(N-morpholino)-butyl-1H-pyrrolo[3,4-c]pyridine-1,3-(2H)-dion] | 34.2 | 35.4 | 61.6 | 299 ± 59 | 178 ± 30 | 19.8 ± 2.1 | 6.2 ± 0.9 | 3.87 | 27.5 | 10.2 ± 1.8 | 12.2 ± 1.4 | > 2000 |  |  |  |  |  | inhibition at 5 mg/kg (mice [4]; Mus musculus, ip, dose 5 mg/kg, read-out: Degree of motor inhibition (%)): 18.1%; inhibition at 12.5 mg/kg (mice [4]; Mus musculus, ip, dose 12.5 mg/kg, read-out: Degree of motor inhibition (%)): 32.8%; Number of impulses ± SEM (30min) (mice [4]; dose 5 mg/kg): 387 ± 24; Number of impulses ± SEM (30min) (mice [4]; dose 12.5 mg/kg): 312 ±26; analgesic effect in the hot plate test (in words) (mice [6]): not statistically significant
CCOc1nc(C)cc2c1C(=O)N(CCN1CCN(c3ccccc3)CC1)C2=O [Compound 10] | 84 ± 5.1 | 49.2 | 55.1 | 224 ± 45 | 198 ± 54 |  | 7.9 ± 2.1 | 6.98 | 34.9 | 18.4 ± 1.7 | 23.2 ± 2.6 | > 2000 | 6.8 | 142 ± 29 | 15.8 ± 0.91 | 2.1 ± 0.6 | 0.9 ± 0.1 | analgesic effect in the hot plate test (in words) (mice [6]): not statistically significant
CCOc1nc(C)cc2c1C(=O)N(CCN1CCN(c3ccccc3OC)CC1)C2=O [Compound 12] | 85 ± 4.2 | 11.8 | 34.5 | 389 ± 54 | 289 ± 72 | 13.9 ± 2.3 | 9.7 ± 1.1 | 28.5 | 52.3 | 22.1 ± 2.7 | 26.2 ± 3.1 | > 2000 | 59.2 | 180 ± 41 | 14.9 ± 2.01 | 2.4 ± 0.3 | 1.9 ± 0.4 | inhibition at 200 mg/kg (mice [4]; [13]): 76.2%; Number of impulses ± SEM (30min) (mice [4]; dose 200 mg/kg): 105 ± 48
COc1nc(C)cc2c1C(=O)N(CN1CCN(c3cccc(Cl)c3)CC1)C2=O [Compound 13] | 164 ± 28.7 |  | 7.93 |  | 406 ± 34 | 14.1 ± 1.0 | 5.9 ± 0.8 | 4.07 | 11.6 | 17.9 ± 2.4 | 19.2 ± 1.8 | > 2000 | 32.2 | 299 ± 49 | 14.8 | 3.8 ± 1.9 | 0.8 ± 0.1 | inhibition at 200 mg/kg (mice [4]; [13]): 59.6%; Number of impulses ± SEM (30min) (mice [4]; dose 200 mg/kg): 178 ± 32
CN1CC[C@]23c4c5ccc(O)c4O[C@H]2[C@@H](O)C=C[C@H]3[C@H]1C5 [Morphine, reference compound] |  |  |  |  |  |  |  |  |  |  |  |  |  |  |  |  |  | ED50 (mg/kg) ± SEM, writhing test (mice [5]; i.p., confidence limits in parentheses): 2.44 mg/kg; Mean no. of writhing ± SEM (mice [5]; i.p., dose 1 mg/kg): 16.2 ± 3.51; Mean no. of writhing ± SEM (mice [5]; i.p., dose 3 mg/kg): 7.5 ± 2.9; Mean no. of writhing ± SEM (mice [5]; i.p., dose 10 mg/kg): 1.2 ± 0.8; change in vivo at 1 mg/kg (mice [6]; [14]): 33.8%; change in vivo at 3 mg/kg (mice [6]; [14]): 104%; change in vivo at 6 mg/kg (mice [6]; [14]): 111%; ED50 (mice [6]; Mus musculus, read-out: ED50, hot plate test): 2.55 mg/kg; Time of Reaction to Pain Stimulus (s) ± SEM (mice [6]; dose 1 mg/kg): 19.4 ± 2.1 s; Time of Reaction to Pain Stimulus (s) ± SEM (mice [6]; dose 3 mg/kg): 29.6 ± 6 s; Time of Reaction to Pain Stimulus (s) ± SEM (mice [6]; dose 6 mg/kg): 30.6 ± 3.9 s
